Test results taken from ChEMBL document CHEMBL4507266, “Data for DCP probe BAY-784” (2021).

Legend:
[1] = molecular target: Thromboxane-A synthase (Homo sapiens) (UniProt P24557); assay: Inhibition of Thromboxane Synthase at compound concentration of 10.0 uM in the Eurofins-Panlabs enzyme assay (Eurofins_assay_194020); parameters: substrate with concentration; settings: Compound concentration 10.0 uM
[2] = molecular target: Phosphodiesterase 3 (Homo sapiens) (UniProt Q14432+Q13370); assay: Inhibition of Phosphodiesterase PDE3 at compound concentration of 10.0 uM in the Eurofins-Panlabs enzyme assay (Eurofins_assay_152000); format: protein assay; parameters: substrate with concentration 1.01 uM [3H] cAMP + cAMP, incubation time 20 min, incubation temperature 25 C; settings: Compound concentration 10.0 uM
CYP1A2 = CYP1A2 (Homo sapiens, UniProt P05177); assay: CYP450, 1A2 Eurofins-Panlabs enzyme assay; settings: compound concentration 10 uM
[3] = molecular target: Substance-P receptor (Homo sapiens) (UniProt P25103); assay: Inhibition of Tachykinin NK1 at 10 µM in the Eurofins-Panlabs radioligand binding assay (Eurofins_assay_255520); parameters: ligand concentration 0.8 nM; settings: Compound concentration 10.0 uM
CYP2C19 = CYP2C19 (Homo sapiens, UniProt P33261); assay: CYP450, 2C19 Eurofins-Panlabs enzyme assay; settings: compound concentration 10 uM
[4] = molecular target: Mu-type opioid receptor (Homo sapiens) (UniProt P35372); settings: Compound concentration 10.0 uM
[5] = molecular target: Adenosine receptor A1 (Homo sapiens) (UniProt P30542); settings: Compound concentration 10.0 uM
[6] = molecular target: Tyrosine-protein kinase Fyn (Homo sapiens) (UniProt P06241); assay: Inhibition of Protein Tyrosine Kinase, Fyn at 10 µM in the Eurofins-Panlabs enzyme assay (Eurofins_assay_172020); parameters: substrate with concentration; settings: Compound concentration 10.0 uM
[7] = molecular target: cGMP-specific 3',5'-cyclic phosphodiesterase (Homo sapiens) (UniProt O76074); settings: Compound concentration 10.0 uM
[8] = molecular target: T1, Alpha-1A adrenergic receptor (Homo sapiens) (UniProt P35348); settings: Rattus norvegicus; Compound concentration 10.0 uM
T1 sequence (whole entry): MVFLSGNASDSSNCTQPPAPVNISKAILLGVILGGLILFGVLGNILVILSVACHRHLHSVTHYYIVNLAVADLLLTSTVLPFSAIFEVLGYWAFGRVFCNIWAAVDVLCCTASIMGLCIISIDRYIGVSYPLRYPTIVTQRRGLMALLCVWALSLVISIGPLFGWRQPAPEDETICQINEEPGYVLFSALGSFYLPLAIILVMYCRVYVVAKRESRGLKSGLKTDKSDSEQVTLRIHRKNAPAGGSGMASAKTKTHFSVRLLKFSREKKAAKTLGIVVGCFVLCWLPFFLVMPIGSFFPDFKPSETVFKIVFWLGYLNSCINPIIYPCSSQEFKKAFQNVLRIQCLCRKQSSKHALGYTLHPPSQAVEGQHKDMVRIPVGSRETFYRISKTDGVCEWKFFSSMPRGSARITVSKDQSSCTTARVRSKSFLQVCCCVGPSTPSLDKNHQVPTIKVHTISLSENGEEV

[9] = molecular target: Interstitial collagenase (Homo sapiens) (UniProt P03956); assay: Inhibition of Peptidase, Matrix Metalloproteinase-1 (MMP-1) at 10 µM in the Eurofins-Panlabs enzyme assay (Eurofins_assay_114110); settings: Compound concentration 10.0 uM
[10] = molecular target: 5-hydroxytryptamine receptor 2B (Homo sapiens) (UniProt P41595); settings: Compound concentration 10.0 uM
[11] = molecular target: Beta-3 adrenergic receptor (Homo sapiens) (UniProt P13945); settings: Compound concentration 10.0 uM
[12] = molecular target: Protein phosphatase 3 catalytic subunit alpha (Homo sapiens) (UniProt Q08209); assay: Inhibition of Protein Serine/threonine Phosphatase, PPP3CA (Calcineurin, PP2B) […] in the Eurofins-Panlabs enzyme assay (Eurofins_assay_188020); parameters: substrate with concentration; settings: Compound concentration 10.0 uM
[13] = molecular target: Adenosine receptor A2a (Homo sapiens) (UniProt P29274); settings: Compound concentration 10.0 uM
[14] = molecular target: L-type calcium channel, benzothiazepine site (Cav1.2 alpha-1C) (Homo sapiens, UniProt Q13936); assay: Inhibition of Calcium Channel L-Type, Benzothiazepine at 10 µM in the Eurofins-Panlabs radioligand binding assay (Eurofins_assay_214510); parameters: ligand concentration 2 nM, non-specific ligand with concentration 10 µM Diltiazem, incubation time 3h, incubation temperature 4 °C; settings: male, Wistar, rat, rat whole brain preparation, probe [3H] Diltiazem, 2 nM; compound concentration 10 uM; target entry is the homologue from another species
[15] = molecular target: D(3) dopamine receptor (Homo sapiens) (UniProt P35462); settings: Compound concentration 10.0 uM
[16] = molecular target: Insulin receptor (Homo sapiens) (UniProt P06213); settings: Rattus norvegicus; Compound concentration 10.0 uM
[17] = molecular target: GABA-A receptor; anion channel (Rattus norvegicus) (UniProt O09028+P15431+P18506+P18508+P19969+P20236+P23574+P23576+P28471+P28473+P30191+P62813+P63079+P63138+Q91ZM7+Q9ES14); settings: Compound concentration 10.0 uM
[18] = molecular target: Melanocortin receptor 3 (Homo sapiens) (UniProt P41968); assay: Inhibition of Melanocortin MC3 at 10 µM in the Eurofins-Panlabs radioligand binding assay (Eurofins_assay_251300); parameters: ligand concentration 0.035 nM; settings: Compound concentration 10.0 uM
[19] = molecular target: Neuropeptide Y receptor type 2 (Homo sapiens) (UniProt P49146); assay: Inhibition of Neuropeptide Y Y2 at 10 µM in the Eurofins-Panlabs radioligand binding assay (Eurofins_assay_257110); settings: Compound concentration 10.0 uM
[20] = molecular target: L-type calcium channel, dihydropyridine site (Cav1.2 alpha-1C) (Homo sapiens, UniProt Q13936); assay: Inhibition of Calcium Channel L-Type, Dihydropyridine at 10 µM in the Eurofins-Panlabs radioligand binding assay (Eurofins_assay_214600); parameters: ligand concentration 0.1 nM, non-specific ligand with concentration 1 µM Nitrendipine, incubation time 90 min, incubation temperature 25 °C; settings: Wistar, rat, rat cerebral cortex preparation, probe [3H] Nitrendipine, 0.1 nM; compound concentration 10 uM; target entry is the homologue from another species
[21] = molecular target: Sodium-dependent dopamine transporter (Homo sapiens) (UniProt Q01959); settings: Compound concentration 10.0 uM
[22] = molecular target: T2, Alpha-2C adrenergic receptor (Homo sapiens) (UniProt P18825); assay: Adrenergic alpha2C Eurofins-Panlabs radioligand binding assay; parameters: ligand concentration 1 nM, non-specific ligand with concentration 10 µM WB-4101, incubation time 60 min, incubation temperature 25 °C; settings: Compound concentration 10.0 uM
T2 sequence (whole entry): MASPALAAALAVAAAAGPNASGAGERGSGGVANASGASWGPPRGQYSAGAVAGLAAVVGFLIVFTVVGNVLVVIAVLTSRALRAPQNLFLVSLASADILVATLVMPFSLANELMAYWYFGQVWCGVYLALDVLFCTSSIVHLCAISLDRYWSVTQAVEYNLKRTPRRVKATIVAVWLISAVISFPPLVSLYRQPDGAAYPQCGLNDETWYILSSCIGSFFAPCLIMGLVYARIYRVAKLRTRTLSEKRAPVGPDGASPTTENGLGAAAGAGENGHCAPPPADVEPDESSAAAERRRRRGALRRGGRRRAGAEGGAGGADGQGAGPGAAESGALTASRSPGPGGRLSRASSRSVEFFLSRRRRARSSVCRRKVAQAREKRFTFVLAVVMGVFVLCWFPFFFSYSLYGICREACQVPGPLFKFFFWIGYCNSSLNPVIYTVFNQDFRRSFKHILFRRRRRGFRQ

Homo sapiens = species: Homo sapiens; assay: Inhibition of Phosphodiesterase PDE4 at compound concentration of 10.0 uM in the Eurofins-Panlabs enzyme assay (Eurofins_assay_154000); format: protein assay; parameters: substrate with concentration 1.01 uM [3 H]cAMP + cAMP, incubation time 20 min, incubation temperature 25 C; settings: Compound concentration 10.0 uM

Sequence of Interstitial collagenase (Homo sapiens) (P03956 whole entry): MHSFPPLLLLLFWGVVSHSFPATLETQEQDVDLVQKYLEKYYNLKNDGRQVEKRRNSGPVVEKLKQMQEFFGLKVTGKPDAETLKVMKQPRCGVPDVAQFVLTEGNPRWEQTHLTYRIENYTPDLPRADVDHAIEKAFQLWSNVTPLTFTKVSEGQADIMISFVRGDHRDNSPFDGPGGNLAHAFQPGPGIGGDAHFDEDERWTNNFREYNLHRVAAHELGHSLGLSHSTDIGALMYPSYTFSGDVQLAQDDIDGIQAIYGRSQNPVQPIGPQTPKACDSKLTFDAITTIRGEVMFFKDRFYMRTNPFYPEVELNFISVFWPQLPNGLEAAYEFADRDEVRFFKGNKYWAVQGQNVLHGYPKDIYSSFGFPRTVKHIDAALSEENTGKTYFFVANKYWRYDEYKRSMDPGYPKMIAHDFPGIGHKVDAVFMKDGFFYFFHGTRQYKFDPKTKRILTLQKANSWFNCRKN
Sequence of 5-hydroxytryptamine receptor 2B (Homo sapiens) (P41595 whole entry): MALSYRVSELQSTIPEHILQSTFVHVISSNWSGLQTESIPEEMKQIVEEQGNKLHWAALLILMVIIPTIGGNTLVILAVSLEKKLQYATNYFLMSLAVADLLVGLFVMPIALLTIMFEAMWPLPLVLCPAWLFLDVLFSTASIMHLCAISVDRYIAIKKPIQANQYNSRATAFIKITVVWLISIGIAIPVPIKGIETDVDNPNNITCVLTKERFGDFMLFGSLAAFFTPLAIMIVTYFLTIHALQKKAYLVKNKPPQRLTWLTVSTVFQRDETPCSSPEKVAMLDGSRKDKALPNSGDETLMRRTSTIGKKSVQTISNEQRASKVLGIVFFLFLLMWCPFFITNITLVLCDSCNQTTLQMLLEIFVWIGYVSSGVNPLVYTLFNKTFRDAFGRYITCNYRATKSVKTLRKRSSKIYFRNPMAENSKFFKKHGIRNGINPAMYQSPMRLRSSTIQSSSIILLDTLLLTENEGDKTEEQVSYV
Sequence of Sodium-dependent dopamine transporter (Homo sapiens) (Q01959 whole entry): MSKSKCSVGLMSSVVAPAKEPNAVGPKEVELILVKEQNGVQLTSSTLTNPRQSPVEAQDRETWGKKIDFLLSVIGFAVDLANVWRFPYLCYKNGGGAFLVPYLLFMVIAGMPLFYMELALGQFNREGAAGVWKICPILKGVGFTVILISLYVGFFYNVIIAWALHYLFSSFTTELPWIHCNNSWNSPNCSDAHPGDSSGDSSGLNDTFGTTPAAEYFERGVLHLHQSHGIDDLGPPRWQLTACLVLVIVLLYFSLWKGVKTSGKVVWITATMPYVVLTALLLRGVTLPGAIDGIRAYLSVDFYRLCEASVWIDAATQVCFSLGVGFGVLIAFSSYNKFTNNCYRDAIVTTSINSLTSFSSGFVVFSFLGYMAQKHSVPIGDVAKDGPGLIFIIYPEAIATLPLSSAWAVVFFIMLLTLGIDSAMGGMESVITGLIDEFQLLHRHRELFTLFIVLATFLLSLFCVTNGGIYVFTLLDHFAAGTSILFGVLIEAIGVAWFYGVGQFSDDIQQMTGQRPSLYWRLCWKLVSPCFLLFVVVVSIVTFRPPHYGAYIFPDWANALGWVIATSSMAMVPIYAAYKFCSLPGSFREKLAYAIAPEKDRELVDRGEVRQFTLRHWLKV
Sequence of D(3) dopamine receptor (Homo sapiens) (P35462 whole entry): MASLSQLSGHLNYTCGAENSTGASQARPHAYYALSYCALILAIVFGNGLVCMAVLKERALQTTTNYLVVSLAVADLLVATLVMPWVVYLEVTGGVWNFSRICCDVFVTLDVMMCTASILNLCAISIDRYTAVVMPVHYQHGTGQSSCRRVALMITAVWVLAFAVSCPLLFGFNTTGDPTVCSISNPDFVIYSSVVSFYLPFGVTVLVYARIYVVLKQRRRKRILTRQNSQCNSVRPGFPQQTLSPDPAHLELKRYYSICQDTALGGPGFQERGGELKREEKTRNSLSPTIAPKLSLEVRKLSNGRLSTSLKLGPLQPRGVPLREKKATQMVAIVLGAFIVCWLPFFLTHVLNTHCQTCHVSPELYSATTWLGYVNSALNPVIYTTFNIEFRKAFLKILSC
Sequence of Beta-3 adrenergic receptor (Homo sapiens) (P13945 whole entry, looked up): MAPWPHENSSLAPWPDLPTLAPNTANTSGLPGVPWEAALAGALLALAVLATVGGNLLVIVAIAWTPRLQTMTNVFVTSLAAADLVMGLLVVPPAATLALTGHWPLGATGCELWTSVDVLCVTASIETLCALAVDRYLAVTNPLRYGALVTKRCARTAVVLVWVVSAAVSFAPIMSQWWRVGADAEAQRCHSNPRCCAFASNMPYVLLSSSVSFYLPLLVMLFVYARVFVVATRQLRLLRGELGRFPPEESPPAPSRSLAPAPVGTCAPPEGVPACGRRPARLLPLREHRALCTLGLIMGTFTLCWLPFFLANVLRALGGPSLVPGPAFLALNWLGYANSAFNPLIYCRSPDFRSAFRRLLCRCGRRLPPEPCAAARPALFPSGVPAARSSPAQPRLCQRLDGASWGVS
Sequence of Neuropeptide Y receptor type 2 (Homo sapiens) (P49146 whole entry): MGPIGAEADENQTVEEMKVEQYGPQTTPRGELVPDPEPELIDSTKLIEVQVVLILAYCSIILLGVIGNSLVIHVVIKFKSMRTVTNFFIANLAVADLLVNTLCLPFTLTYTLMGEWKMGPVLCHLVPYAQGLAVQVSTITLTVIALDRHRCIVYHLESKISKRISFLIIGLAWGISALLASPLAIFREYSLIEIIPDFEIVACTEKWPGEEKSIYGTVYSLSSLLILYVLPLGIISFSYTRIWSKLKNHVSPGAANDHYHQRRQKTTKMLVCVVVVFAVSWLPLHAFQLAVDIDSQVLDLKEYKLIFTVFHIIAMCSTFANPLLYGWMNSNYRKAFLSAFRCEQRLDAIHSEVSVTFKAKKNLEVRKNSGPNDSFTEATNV
Sequence of Thromboxane-A synthase (Homo sapiens) (P24557 whole entry): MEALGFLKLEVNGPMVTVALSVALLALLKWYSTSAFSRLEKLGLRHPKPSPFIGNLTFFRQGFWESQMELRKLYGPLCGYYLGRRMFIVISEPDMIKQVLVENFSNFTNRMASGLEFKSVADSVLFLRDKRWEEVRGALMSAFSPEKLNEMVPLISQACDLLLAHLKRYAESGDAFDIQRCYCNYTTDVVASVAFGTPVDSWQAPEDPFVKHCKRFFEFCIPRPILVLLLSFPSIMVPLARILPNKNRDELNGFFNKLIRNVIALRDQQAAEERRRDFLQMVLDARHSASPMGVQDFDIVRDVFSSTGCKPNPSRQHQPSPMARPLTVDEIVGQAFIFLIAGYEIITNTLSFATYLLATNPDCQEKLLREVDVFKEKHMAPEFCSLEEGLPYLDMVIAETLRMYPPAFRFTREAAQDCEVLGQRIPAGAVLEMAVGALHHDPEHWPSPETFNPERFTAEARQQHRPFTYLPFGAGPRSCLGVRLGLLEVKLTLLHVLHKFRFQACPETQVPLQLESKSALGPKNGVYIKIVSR
Sequence of Adenosine receptor A1 (Homo sapiens) (P30542 whole entry): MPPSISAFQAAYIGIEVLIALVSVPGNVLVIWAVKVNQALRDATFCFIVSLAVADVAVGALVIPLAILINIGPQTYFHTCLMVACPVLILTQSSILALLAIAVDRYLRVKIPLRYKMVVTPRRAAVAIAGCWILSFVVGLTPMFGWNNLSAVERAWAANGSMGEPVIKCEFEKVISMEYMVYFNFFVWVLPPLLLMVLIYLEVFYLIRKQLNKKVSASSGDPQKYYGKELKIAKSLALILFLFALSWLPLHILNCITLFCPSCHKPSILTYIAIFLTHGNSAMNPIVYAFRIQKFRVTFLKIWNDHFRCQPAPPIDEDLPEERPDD
Sequence of Mu-type opioid receptor (Homo sapiens) (P35372 whole entry): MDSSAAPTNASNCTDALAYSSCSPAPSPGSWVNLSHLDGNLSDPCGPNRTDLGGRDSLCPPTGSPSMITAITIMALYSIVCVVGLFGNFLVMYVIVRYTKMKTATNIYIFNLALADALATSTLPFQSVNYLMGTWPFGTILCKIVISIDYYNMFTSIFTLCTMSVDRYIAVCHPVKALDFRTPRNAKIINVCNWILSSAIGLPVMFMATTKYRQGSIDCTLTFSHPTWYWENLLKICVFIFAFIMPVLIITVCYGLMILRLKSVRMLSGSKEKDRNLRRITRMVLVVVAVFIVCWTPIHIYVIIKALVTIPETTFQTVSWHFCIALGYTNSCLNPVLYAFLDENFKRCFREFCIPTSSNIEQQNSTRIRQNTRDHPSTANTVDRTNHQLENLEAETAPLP
Sequence of Tyrosine-protein kinase Fyn (Homo sapiens) (P06241 2-537 limits assumed): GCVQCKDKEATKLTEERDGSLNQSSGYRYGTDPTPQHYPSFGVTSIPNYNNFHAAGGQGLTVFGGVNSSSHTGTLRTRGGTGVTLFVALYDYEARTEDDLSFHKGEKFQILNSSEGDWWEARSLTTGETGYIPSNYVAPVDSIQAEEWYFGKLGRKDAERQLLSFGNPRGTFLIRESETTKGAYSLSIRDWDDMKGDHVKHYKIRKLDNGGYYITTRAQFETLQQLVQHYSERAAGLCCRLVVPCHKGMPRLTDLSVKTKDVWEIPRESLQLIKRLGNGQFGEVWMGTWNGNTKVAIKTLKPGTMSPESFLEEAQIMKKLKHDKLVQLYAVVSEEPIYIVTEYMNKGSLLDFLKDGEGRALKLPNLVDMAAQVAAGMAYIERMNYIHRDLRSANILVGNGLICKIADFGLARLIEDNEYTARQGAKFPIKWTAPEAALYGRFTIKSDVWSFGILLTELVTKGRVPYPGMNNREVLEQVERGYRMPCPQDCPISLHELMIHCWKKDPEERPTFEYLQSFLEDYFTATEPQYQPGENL
Sequence of Melanocortin receptor 3 (Homo sapiens) (P41968 whole entry): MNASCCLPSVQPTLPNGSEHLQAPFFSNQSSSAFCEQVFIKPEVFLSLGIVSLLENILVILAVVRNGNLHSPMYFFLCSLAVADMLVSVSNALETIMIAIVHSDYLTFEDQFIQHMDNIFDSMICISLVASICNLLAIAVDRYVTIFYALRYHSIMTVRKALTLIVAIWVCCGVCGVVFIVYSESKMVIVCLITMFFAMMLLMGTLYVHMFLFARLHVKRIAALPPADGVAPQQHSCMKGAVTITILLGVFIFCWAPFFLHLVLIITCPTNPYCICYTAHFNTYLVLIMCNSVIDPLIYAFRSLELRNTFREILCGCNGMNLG

O=C(NCc1ncc(C(F)(F)F)cc1Cl)c1ccc2c(c1)C1(CCS(=O)(=O)CC1)[C@H](C1CC1)N2S(=O)(=O)c1ccc(F)cc1 [BAY-784]
inhibition [1]: 22% | inhibition [2]: 9% | inhibition at 10 µM (CYP1A2): -2% (not active) | inhibition [3]: 26% | inhibition at 10 µM (CYP2C19): 36% (not active) | inhibition [4]: 16% | inhibition [5]: 15% | inhibition [6]: 5% | inhibition [7]: -5% | inhibition [8]: 7% | inhibition [9]: -4% | inhibition [10]: 4% | inhibition [11]: 0% | inhibition [12]: 16% | inhibition [13]: 0% | inhibition at 3 h, 10 µM [14]: 29% (not active) | inhibition [15]: 17% | inhibition [16]: -1% | inhibition [17]: -9.68% | inhibition [18]: -7% | inhibition [19]: 2% | inhibition at 90 min, 10 µM [20]: 26% (not active) | inhibition [21]: 25% | inhibition [22]: 3% | inhibition (Homo sapiens): 2%
